From patent publication US20100249302A1, “LIQUID COMPOSITION CONTAINING PERFLUORO-CHLOROETHER SOLVENT” (FUJIFILM CORPORATION, priority 2009, published 2010)

Legend:
[1] = Solubility of coating-composition components in FC-72 (comparative coating examples); conditions: label = solute, solvent = FC-72; coating composition preparation
[2] = Solubility of FC-72 (perfluorohexane) in the fluorine-containing solvents; assay type: physicochemical; conditions: for Solubility (% by weight) FC-72 (Fluorine Content: 79% by weight): Table 1, solute FC-72 dissolved in the solvent; for ability of the solvent to dissolve FC-72: label = solvent, solute = FC-72
[3] = Measurement of solubility of compound (17) (fluorine-free organic compound) in fluorine-containing solvents; conditions: Table 1; solute compound (17) dissolved in the solvent
Method: The resulting solution is diluted with deutrochloroform, followed by measuring ^1H-NMR.

SMILES | solubility in FC-72 [1] | Solubility (% by weight) FC-72 (Fluorine Content: 79% by weight) [2] | ability of the solvent to dissolve FC-72 [2] | Solubility (% by weight) Compound (17) (Fluorine Content: 0% by weight) [3] | Solubility (% by weight) FC-72 [2]
OCC(F)(F)C(F)(F)C(F)(F)C(F)(F)C(F)(F)C(F)(F)C(F)(F)C(F)(F)CO [1H,1H,10H,10H-hexadecafluoro-1,10-decanediol] | not completely soluble | – | – | – | –
CCO[Si](CCCN=C=O)(OCC)OCC [3-(triethoxysilyl)propyl isocyanate] | not completely soluble | – | – | – | –
FC(F)(Cl)C(F)(F)OC(F)(Cl)C(Cl)(Cl)Cl (stereo not shown) [Compound (2)] | – | soluble in any | can dissolve FC-72 in any proportion | soluble in any | –
FC(F)(Cl)C(F)(F)OC(F)(Cl)C(F)(Cl)Cl (stereo not shown) [Compound (2′)] | – | – | can dissolve FC-72 in any proportion | – | soluble in any
FC(F)(Cl)C(F)(OC(F)(Cl)C(Cl)(Cl)Cl)C(F)(F)Cl (stereo not shown) [Compound (3)] | – | soluble in any | can dissolve FC-72 in any proportion | soluble in any | –
FC(Cl)(Cl)C(F)(F)OC(F)(Cl)C(F)(Cl)Cl (stereo not shown) [Compound (3′)] | – | – | can dissolve FC-72 in any proportion | – | soluble in any
FC(Cl)(Cl)C(F)(F)OC(F)(Cl)C(Cl)(Cl)Cl (stereo not shown) [Compound (4)] | – | soluble in any | can dissolve FC-72 in any proportion | soluble in any | –
FC(Cl)(Cl)C(F)(Cl)OC(F)(F)C(Cl)(Cl)Cl (stereo not shown) [Compound (4′)] | – | – | can dissolve FC-72 in any proportion | – | soluble in any
FC(F)(OC(F)(Cl)C(Cl)(Cl)Cl)C(Cl)(Cl)Cl (stereo not shown) [Compound (5)] | – | soluble in any | can dissolve FC-72 in any proportion | soluble in any | –
FC(F)(Cl)C(F)(OC(F)(Cl)C(F)(Cl)Cl)C(F)(F)Cl (stereo not shown) [Compound (5′)] | – | – | can dissolve FC-72 in any proportion | – | soluble in any
